Experimental data published in paper PMC9116245, “New 1,2,3-triazole linked ciprofloxacin-chalcones induce DNA damage by inhibiting human topoisomerase I& II and tubulin polymerization” (Journal of Enzyme Inhibition and Medicinal Chemistry, 2022).

Columns and labels:
[1] = tested on: 59 human cancer cell lines; test: NCI one-dose screen, whole panel; assay type: cell-based; conditions: Homo sapiens, mean over the panel, read-out: Mean Growth Percent
Experimental: (§1) For screening of anticancer properties, all the developed compounds were chosen by the (NCI) for in-vitro antitumor evaluation. The assay was carried out using 59 human cancer cell lines obtained from nine tumour subpanels (breast, ovarian, melanoma, leukaemia, renal, CNS, lung, prostate, and colon cancer cell lines). Compounds were assessed at a 10 µM concentration. […] Also, hybrids 4a, 4b, 4e, 4i and 4j produced significant anti-proliferative effect in several cancer cells, particularly in leukaemia (RPMI-8226) and colon (HCT116) cells with growth percent of 47.87, −14.59, −24.56, −24.42, −15.84, −9.74, −53.36, −10.26, −31.29, and −39.51%, respectively.
(§2) The method description for NCI anticancer screening is provided in detail in the standard NCI-60 testing protocol.

Caco-2 = test: MTT assay; assay type: cell-based; conditions: Homo sapiens; Caco-2, MTT assay, 24 h incubation
Procedure, shortened: (§3)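 Colorectal lines treated with 1, 5, 10, 20, 40, 80 or 100 µM compound, or DMSO vehicle. Proliferation read by MTT reduction.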

HCT116 = test: MTT assay; assay type: cell-based; conditions: Homo sapiens, HCT-116, 24 h incubation
Procedure, shortened: as §3

HT-29 = test: MTT assay; assay type: cell-based; conditions: Homo sapiens; HT-29, MTT assay, 24 h incubation
Procedure, shortened: as §3

KM12 = test: NCI one-dose screen; assay type: cell-based; conditions: Homo sapiens; KM12, 10 µM; read-out: Growth Percent
Experimental: as §1, §2

SN12C = test: NCI one-dose screen; assay type: cell-based; conditions: Homo sapiens, read-out: Growth Percent
Experimental: as §1, §2

SK-MEL-28 = test: NCI one-dose screen; assay type: cell-based; conditions: Homo sapiens; SK-MEL-28, 10 µM; read-out: Growth Percent
Experimental: as §1, §2

U251 = test: NCI one-dose screen; assay type: cell-based; conditions: Homo sapiens, U-251; U251, 10 µM; read-out: Growth Percent
Experimental: as §1, §2

K-562 = test: NCI one-dose screen; assay type: cell-based; conditions: Homo sapiens, K562; K-562, 10 µM; read-out: Growth Percent
Experimental: as §1, §2

NCI-H226 = test: NCI one-dose screen; assay type: cell-based; conditions: Homo sapiens; NCI-H226, 10 µM; read-out: Growth Percent
Experimental: as §1, §2

HT29 = test: NCI one-dose screen; assay type: cell-based; conditions: Homo sapiens, HT-29; HT29, 10 µM; read-out: Growth Percent
Experimental: as §1, §2

CAKI-1 = test: NCI one-dose screen; assay type: cell-based; conditions: Homo sapiens; CAKI-1, 10 µM; read-out: Growth Percent
Experimental: as §1, §2

SK-OV-3 = test: NCI one-dose screen; assay type: cell-based; conditions: Homo sapiens; SK-OV-3, 10 µM; read-out: Growth Percent
Experimental: as §1, §2

SK-MEL-2 = test: NCI one-dose screen; assay type: cell-based; conditions: Homo sapiens; SK-MEL-2, 10 µM; read-out: Growth Percent
Experimental: as §1, §2

SNB-19 = test: NCI one-dose screen; assay type: cell-based; conditions: Homo sapiens; SNB-19, 10 µM; read-out: Growth Percent
Experimental: as §1, §2

EKVX = test: NCI one-dose screen; assay type: cell-based; conditions: Homo sapiens, read-out: Growth Percent
Experimental: as §1, §2

BT-549 = test: NCI one-dose screen; assay type: cell-based; conditions: Homo sapiens; BT-549, 10 µM; read-out: Growth Percent
Experimental: as §1, §2

MDA-MB-231/ATCC = test: NCI one-dose screen; assay type: cell-based; conditions: Homo sapiens, read-out: Growth Percent
Experimental: as §1, §2

IGROV1 = test: NCI one-dose screen; assay type: cell-based; conditions: Homo sapiens, IGROV-1; IGROV1, 10 µM; read-out: Growth Percent
Experimental: as §1, §2

SNB-75 = test: NCI one-dose screen; assay type: cell-based; conditions: Homo sapiens; SNB-75, 10 µM; read-out: Growth Percent
Experimental: as §1, §2

UACC-62 = test: NCI one-dose screen; assay type: cell-based; conditions: Homo sapiens; UACC-62, 10 µM; read-out: Growth Percent
Experimental: as §1, §2

OVCAR-5 = test: NCI one-dose screen; assay type: cell-based; conditions: Homo sapiens; OVCAR-5, 10 µM; read-out: Growth Percent
Experimental: as §1, §2

SF-539 = test: NCI one-dose screen; assay type: cell-based; conditions: Homo sapiens; SF-539, 10 µM; read-out: Growth Percent
Experimental: as §1, §2

TK-10 = test: NCI one-dose screen; assay type: cell-based; conditions: Homo sapiens; TK-10, 10 µM; read-out: Growth Percent
Experimental: as §1, §2

DU-145 = test: NCI one-dose screen; assay type: cell-based; conditions: Homo sapiens; DU-145, 10 µM; read-out: Growth Percent
Experimental: as §1, §2

786-0 = test: NCI one-dose screen; assay type: cell-based; conditions: Homo sapiens; 786-0, 10 µM; read-out: Growth Percent
Experimental: as §1, §2

OVCAR-8 = test: NCI one-dose screen; assay type: cell-based; conditions: Homo sapiens; OVCAR-8, 10 µM; read-out: Growth Percent
Experimental: as §1, §2

UACC-257 = test: NCI one-dose screen; assay type: cell-based; conditions: Homo sapiens; UACC-257, 10 µM; read-out: Growth Percent
Experimental: as §1, §2

OVCAR-3 = test: NCI one-dose screen; assay type: cell-based; conditions: Homo sapiens; OVCAR-3, 10 µM; read-out: Growth Percent
Experimental: as §1, §2

MOLT-4 = test: NCI one-dose screen; assay type: cell-based; conditions: Homo sapiens; MOLT-4, 10 µM; read-out: Growth Percent
Experimental: as §1, §2

SW-620 = test: NCI one-dose screen; assay type: cell-based; conditions: Homo sapiens; SW-620, 10 µM; read-out: Growth Percent
Experimental: as §1, §2

SR = test: NCI one-dose screen; assay type: cell-based; conditions: Homo sapiens, read-out: Growth Percent
Experimental: as §1, §2

HCT-116 = test: NCI one-dose screen; assay type: cell-based, human; conditions: Homo sapiens; HCT-116, 10 µM; read-out: Growth Percent
Experimental: as §1, §2

RPMI-8226 = test: NCI one-dose screen; assay type: cell-based, human; conditions: Homo sapiens; RPMI-8226, 10 µM; read-out: Growth Percent
Experimental: as §1, §2

| Compound | activity at 10 µM [1] [%] | IC50 (Caco-2) [µM] | IC50 (HCT116) [µM] | IC50 (HT-29) [µM] | activity at 10 µM (KM12) [%] | activity at 10 µM (SN12C) [%] | activity at 10 µM (SK-MEL-28) [%] | activity at 10 µM (U251) [%] | activity at 10 µM (K-562) [%] | activity at 10 µM (NCI-H226) [%] | activity at 10 µM (HT29) [%] | activity at 10 µM (CAKI-1) [%] | activity at 10 µM (SK-OV-3) [%] | activity at 10 µM (SK-MEL-2) [%] | activity at 10 µM (SNB-19) [%] | activity at 10 µM (EKVX) [%] | activity at 10 µM (BT-549) [%] | activity at 10 µM (MDA-MB-231/ATCC) [%] | activity at 10 µM (IGROV1) [%] | activity at 10 µM (SNB-75) [%] | further results |
| --- | --- | --- | --- | --- | --- | --- | --- | --- | --- | --- | --- | --- | --- | --- | --- | --- | --- | --- | --- | --- | --- |
| Cc1ccc(/C=C/C(=O)c2ccc(-n3cc(CN4CCN(c5cc6c(cc5F)c(=O)c(C(=O)O)cn6C5CC5)CC4)nn3)cc2)cc1 [Compound 4f, (E)-1-cyclopropyl-6-fluoro-4-oxo-7-(4-((1-(4-(3-(p-tolyl)acryloyl)phenyl)-1H-1,2,3-triazol-4-yl)methyl)piperazin-1-yl)-1,4-dihydroquinoline-3-carboxylic acid] | 80.3 | 10.1 ± 2.82 | 7.22 ± 1.45 | 14.7 ± 1.81 | 88.8 | 44.9 | 107 | 71.2 | 51.5 | 84.5 | 91.7 | 64.4 | 78.4 | 97.2 | 86.9 | 90.7 | 81.3 | 80.1 | 74.2 | 93.6 | activity at 10 µM (UACC-62): 83%; activity at 10 µM (OVCAR-5): 99.5%; activity at 10 µM (SF-539): 83%; activity at 10 µM (TK-10): 91.4%; activity at 10 µM (DU-145): 78.9%; activity at 10 µM (786-0): 76.7%; activity at 10 µM (OVCAR-8): 79%; activity at 10 µM (UACC-257): 95.8%; activity at 10 µM (OVCAR-3): 95.9%; activity at 10 µM (MOLT-4): 67.7%; activity at 10 µM (SW-620): 95.5%; activity at 10 µM (SR): 16.6%; activity at 10 µM (HCT-116): 7.82%; activity at 10 µM (RPMI-8226): 34.2% |
| COc1ccc(/C=C/C(=O)c2ccc(-n3cc(CN4CCN(c5cc6c(cc5F)c(=O)c(C(=O)O)cn6C5CC5)CC4)nn3)cc2)cc1 [Compound 4g, (E)-1-Cyclopropyl-6-fluoro-7-(4-((1-(4-(3-(4-methoxyphenyl)acryloyl)phenyl)-1H-1,2,3-triazol-4-yl)methyl)piperazin-1-yl)-4-oxo-1,4-dihydroquinoline-3-carboxylic acid] | 78.8 | 11.4 ± 3.19 | 6.11 ± 1.03 | 34 ± 3.69 | 86.4 | 58.2 | 85.3 | 68.6 | 67.5 | 76.3 | 78.2 | 75.5 | 84.6 | 99.1 | 84.1 | 96.6 | 90 | 88.1 | 59 | 91.6 | activity at 10 µM (UACC-62): 74.6%; activity at 10 µM (OVCAR-5): 100%; activity at 10 µM (SF-539): 92.8%; activity at 10 µM (TK-10): 92.4%; activity at 10 µM (DU-145): 90.8%; activity at 10 µM (786-0): 78.1%; activity at 10 µM (OVCAR-8): 83.6%; activity at 10 µM (UACC-257): 91.7%; activity at 10 µM (OVCAR-3): 90.5%; activity at 10 µM (MOLT-4): 81.7%; activity at 10 µM (SW-620): 81.7%; activity at 10 µM (SR): 13.1%; activity at 10 µM (HCT-116): 2.68%; activity at 10 µM (RPMI-8226): 11.5% |
| CN(C)c1ccc(/C=C/C(=O)c2ccc(-n3cc(CN4CCN(c5cc6c(cc5F)c(=O)c(C(=O)O)cn6C5CC5)CC4)nn3)cc2)cc1 [Compound 4h, (E)-1-cyclopropyl-7–(4-((1–(4-(3-(4-(dimethylamino)phenyl)acryloyl)phenyl)-1H-1,2,3-triazol-4-yl)methyl)piperazin-1-yl)-6-fluoro-4-oxo-1,4-dihydroquinoline-3-carboxylic acid] | 82 | 6.39 ± 1.41 | 5.09 ± 2.74 | 21.7 ± 2.74 | 84.1 | 67.7 | 100 | 73 | 86 | 84.6 | 98.9 | 69.8 | 84.7 | 95.5 | 86.4 | 96 | 73.7 | 75.5 | 69.9 | 70.8 | activity at 10 µM (UACC-62): 77.6%; activity at 10 µM (OVCAR-5): 109%; activity at 10 µM (SF-539): 73.6%; activity at 10 µM (TK-10): 104%; activity at 10 µM (DU-145): 96.3%; activity at 10 µM (786-0): 65%; activity at 10 µM (OVCAR-8): 62.5%; activity at 10 µM (UACC-257): 101%; activity at 10 µM (OVCAR-3): 96%; activity at 10 µM (MOLT-4): 86%; activity at 10 µM (SW-620): 98.5%; activity at 10 µM (SR): 63.2%; activity at 10 µM (HCT-116): 8.04%; activity at 10 µM (RPMI-8226): 44.3% |
